PMC9430695

target: T1, Sortase A (SrtA) (Staphylococcus aureus, UniProt Q2FV99); assay: fluorescence quenching (KA); also FRET inhibition of purified SrtA, IC50 […]; type: binding; conditions: read-out: fluorescence quenching (KA), IC50 31.20 μ (converted)
T1 construct: SrtA residues Gln-60-Lys-206 (SrtA ΔN59), from S. aureus USA300, 6 × His tag
T1 sequence (Q2FV99 60-206): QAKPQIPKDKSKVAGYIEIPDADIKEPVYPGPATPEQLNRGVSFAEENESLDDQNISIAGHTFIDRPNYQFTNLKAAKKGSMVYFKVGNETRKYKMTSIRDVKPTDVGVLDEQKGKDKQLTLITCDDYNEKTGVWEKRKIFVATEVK

Compound | Kd
O=C(O)[C@H]1O[C@@H](Oc2c(O)cc(O)c3c(=O)c(O)c(-c4ccc(O)c(O)c4)oc23)[C@H](O)[C@@H](O)[C@@H]1O [hibifolin] | 58.1 µM

target: T1, Sortase A (SrtA); assay: biochemical; set-up: FRET cleavage of Abz-LPATG-Dap(Dnp)-NH2 by purified SrtA, fluorescence 309/420 nm; conditions: library screen; read-out: Relative inhibition rate (%)
Method: Fluorescence resonant energy transfer (FRET) was used to screen the effect of the SrtA inhibitor ([22]). Purified SrtA (4 μM) and hibifolin with different concentrations were added into a 100 μL reaction system, incubating at 37°C for 1 h. A fluorescent substrate peptide Abz-LPATG-Dap (Dnp)-NH2 (10 μM) (Beijing, China) was added to initiate the reaction. After incubating at 37°C for 20 min, the fluorescent microplate reader was measured with the excitation wavelength at 309 nm and the emission wavelength at 420 nm. Subsequently, a gradient concentration inhibition curve was performed and IC50 was calculated. When the inhibitory activity was greater than 60%, the compound was considered a potential inhibitor. The representative list of our nature compounds library has been compiled in Table S3 in Supplemental File 1 along with the results of the initial screening.

Compound | inhibition at 64 µg/mL
COc1cc2c(c(OC)c1OC)-c1c(cc3c(c1OC)OCO3)[C@H](OC(C)=O)[C@H](C)[C@H](C)C2 [Kadsurin] | 16.9%
O=C(O)[C@H]1O[C@@H](Oc2c(O)cc(O)c3c(=O)c(O)c(-c4ccc(O)c(O)c4)oc23)[C@H](O)[C@@H](O)[C@@H]1O [hibifolin] | 65.3%
COc1ccc([C@@H]2OC[C@H]3[C@@H]2CO[C@@H]3c2ccc(O[C@@H]3O[C@H](CO)[C@@H](O)[C@H](O)[C@H]3O)c(OC)c2)cc1OC [Forsythin] | 14.8%
COc1cc(-c2coc3cc(O)c(OC)c(O)c3c2=O)cc(O)c1OC [Irigenin] | 30.3%
COc1ccc(-c2oc3cc(OC)cc(O)c3c(=O)c2OC)cc1 [Kaempferol 3,7,4'-trimethyl ether] | 32.6%
C=CCc1cc(OC)c(O[C@@H](C)[C@H](O)c2ccc(O)c(OC)c2)c(OC)c1 [Myrislignan] | 1.72%
CC(C)=CCC/C(C)=C/Cc1cc(-c2coc3cc(O)ccc3c2=O)ccc1O [Corylifol A] | 36.8%
COc1cc(C[C@H](C)[C@H](C)Cc2ccc3c(c2)OCO3)ccc1O [Anwulignan] | 15.6%
COc1cc(-c2oc3cc(OC)c(OC)c(O)c3c(=O)c2OC)ccc1O [Chrysosplenetin] | 34.2%
COc1ccc(-c2cc(=O)c3c(O)c(OC)c(OC)c(OC)c3o2)cc1OC [5-Demethylnobiletin] | 54.3%
COc1ccc(-c2cc(=O)c3c(O)cc(O)cc3o2)cc1-c1c(O)cc(O)c2c(=O)cc(-c3ccc(O)cc3)oc12 [Bilobetin] | 17.8%
COc1ccc(-c2coc3cc(OC)ccc3c2=O)cc1 [7,4'-Dimethoxyisoflavone] | 44%
COc1cc(-c2oc3cc(O)cc(O)c3c(=O)c2O[C@@H]2O[C@H](CO[C@@H]3O[C@@H](C)[C@H](O)[C@@H](O)[C@H]3O)[C@@H](O)[C@H](O)[C@H]2O)ccc1O [Narcissin] | 44.5%
COc1ccc(-c2oc3cc(OC)c(OC)c(O)c3c(=O)c2OC)cc1OC [Artemetin] | 32.8%
O=C(/C=C/c1ccc(O)c2c1[C@H](C(=O)O)[C@@H](c1ccc(O)c(O)c1)O2)O[C@H](Cc1ccc(O)c(O)c1)C(=O)O [Lithospermic acid] | 51.7%
COc1ccc(-c2cc(=O)c3c(OC)c(OC)c(OC)cc3o2)cc1OC [Sinensetin] | 23.8%
COc1cc(O)c2c(=O)cc(-c3ccc(OC)c(-c4c(O)cc(O)c5c(=O)cc(-c6ccc(O)cc6)oc45)c3)oc2c1 [Ginkgetin] | 0.25%
COc1c(O[C@@H]2O[C@H](CO)[C@@H](O)[C@H](O)[C@H]2O)cc2occ(-c3ccc(O)cc3)c(=O)c2c1O [Tectoridin] | 20%
O=c1c(O[C@@H]2O[C@H](CO)[C@@H](O)[C@H](O)[C@H]2O[C@@H]2OC[C@@H](O)[C@H](O)[C@H]2O)c(-c2ccc(O)cc2)oc2cc(O)cc(O)c12 [Leucoside] | 27.3%
O=c1c(-c2ccc(O[C@@H]3O[C@H](CO)[C@@H](O)[C@H](O)[C@H]3O)cc2)coc2cc(O)cc(O)c12 [Sophoricoside] | 14.4%
O=C(O[C@H]1[C@H](Oc2c(-c3ccc(O)c(O)c3)oc3cc(O)cc(O)c3c2=O)O[C@H](CO)[C@H](O)[C@@H]1O)c1cc(O)c(O)c(O)c1 [2"-O-Galloylhyperin] | 42.4%
Oc1cc(O)c2c(c1)O[C@H](c1ccc(O)c(O)c1)[C@H](O)[C@H]2c1c(O)cc(O)c2c1O[C@H](c1ccc(O)c(O)c1)[C@H](O)C2 [Procyanidin B2] | 13.8%
COc1ccc(-c2cc(=O)c3c(OC)cc(OC)c(OC)c3o2)cc1 [5,7,8,4'-Tetramethoxyflavone] | 27.4%
O=c1c(O[C@@H]2O[C@@H](CO)[C@H](O)[C@H]2O)c(-c2ccc(O)c(O)c2)oc2cc(O)cc(O)c12 [Avicularin] | 45.3%
C/C=C/c1cc(OC)c2c(c1)[C@@H](C)[C@H](c1ccc3c(c1)OCO3)O2 [(-)-Licarin B] | 38.9%
COc1c(O)cc2oc(-c3ccc(O)cc3)cc(=O)c2c1O [Hispidulin] | 50%
O=c1c(O[C@@H]2O[C@H](CO)[C@@H](O)[C@H](O)[C@H]2O[C@@H]2O[C@H](CO)[C@@H](O)[C@H](O)[C@H]2O)c(-c2ccc(O)c(O)c2)oc2cc(O)cc(O)c12 [Quercetin 3-O-sophoroside] | 37.8%
O=c1cc(-c2ccc(O)cc2)oc2cc(O)c(O)c(O)c12 [Scutellarein] | 42.1%
O=c1cc(-c2ccc(O)cc2)oc2cc(O[C@@H]3O[C@H](CO)[C@@H](O)[C@H](O)[C@H]3O)cc(O)c12 [Cosmosiin] | 46.8%

same assay, conditions: read-out: SrtA relative inhibition rate (%)

Compound | inhibition at 64 µg/mL
O=C(O)[C@H]1O[C@@H](Oc2c(O)cc(O)c3c(=O)c(O)c(-c4ccc(O)c(O)c4)oc23)[C@H](O)[C@@H](O)[C@@H]1O [hibifolin] | 74.6%
O=c1cc(-c2ccc(Oc3c(O)cc4oc(-c5ccc(O)cc5)cc(=O)c4c3O)cc2)oc2cc(O)cc(O)c12 [Hinokiflavone] | 36.2%
O=C1c2c(O)cc(O)cc2O[C@H](c2ccc(O)c(O)c2)[C@H]1O [Taxifolin] | 56%
COC(=O)[C@H]1O[C@@H](Oc2cc3oc(-c4ccc(O)cc4)cc(=O)c3c(O)c2O)[C@H](O)[C@@H](O)[C@@H]1O [Scutellarin Methyl Ester] | 73.8%
O=c1cc(-c2ccc(O)cc2)oc2c([C@@H]3O[C@H](CO)[C@@H](O)[C@H](O)[C@H]3O)c(O)c([C@@H]3O[C@H](CO)[C@@H](O)[C@H](O)[C@H]3O)c(O)c12 [Vicenin-2] | 67.6%
C[C@@H]1O[C@@H](Oc2cc(O)c3c(=O)c(O)c(-c4ccc(O)c(O)c4)oc3c2)[C@H](O)[C@H](O)[C@H]1O [Vincetoxicoside B] | 57.2%
COc1ccc(-c2oc3cc(O)cc(O)c3c(=O)c2O)cc1O [Tamarixetin] | 26.2%
